Like-named read-outs stand apart in the source and are kept apart here.
Key:
[1] = system: HT-29; assay: MTT viability assay, HT-29; format: cell-based, human; settings: Homo sapiens, HT-29, 72 h of exposure, TP53 mutant, mean of six replicates of one experiment, read-out: IC50 Cancer Cell Lines (C) HT-29
Protocol: (§1) HCT-116 (CCL-247), LoVo (CCL-229), DLD-1 (CCL-221), HT-29 (HTB-38) and CoN (CCD-841) human CRC cells were obtained from the ATCC (Manassas, VA, USA). HCT-116 cells were cultured in Dulbecco’s Modified Eagle’s Medium (DMEM; Corning Cellgro, Corning, NY, USA) for the invasion assays or RPMI-1640 medium (Lonza, Westburg, The Netherlands) for all other assays. The LoVo, DLD-1, and HT-29 cell lines were grown in RPMI-1640 for all experiments. Media were supplemented with 10% fetal bovine serum (FBS; Gibco, Waltham, MA, USA or Greiner Bio-One, Vilvoorde, Belgium), 100 U/mL penicillin, and 100 µg/mL streptomycin (Gibco, Waltham, MA). Cells were grown at 37 °C and 5% CO2 in a humidified atmosphere. The CoN cells were cultured in Eagle’s Minimum Essential Medium (Lonza, Westburg, The Netherlands) supplemented with 10% FBS (South America origin, Greiner Bio-One, Vilvoorde, Belgium). HCT-116 p53^-/- cells were obtained from Denis L.J. LaFontaine, Université Libre de Bruxelles, Brussels, Belgium.
(§2) Effects of compounds on viability were assessed by means of 3-(4,5-dimethylthiazol-2-yl)-2,5-diphenyltetrazolium bromide (MTT; Sigma-Aldrich, Diegem, Belgium) colorimetric assay as previously reported. Briefly, cells were seeded in flat-bottom 96-well plates at the appropriate cell density 24 h prior to the exposure or not to the compound of interest. Each compound was first solubilized in dimethylsulfoxide (DMSO) at 10^−2 M concentration and further diluted in a serial manner in the culture medium. Nine concentrations ranging from 10 nM to 100 µM were tested in sextuplicate within the assay. Evaluation of the cell viability was conducted after 72 h of exposure to the compound by means of MTT assay.

[2] = system: IL-8; assay: Luminex assay of IL-8 in HCT-116 and LoVo cell supernatants; format: cell-based, human; settings: LYC 6 µM; 24 h; both cellular models
Description: (§3) We ordered a customized Luminex® assay to quantify 15 targets at once from Biotechne (reference LXSAHM-15; R&D Systems, Abingdon, U.K.). The 15 targets were chosen on the basis of the literature as follows: the relevant metalloproteinases MMP-1, -2, -7, -9, -13 [49] and the cytokines associated with dismal prognosis or shorter disease-free survival period: C-C motif chemokine ligand (CCL) -4, CCL-22, Flt-3 ligand, IL-1β, IL-2, IL-6, IL-8, interferon gamma (IFNγ), vascular endothelial growth factor (VEGF), and pentraxin-3 [50]. Samples were prepared as follows: HCT-116 or LoVo cells were seeded in 6-well plates and allowed to adhere and grow until they reached 70% confluency. The culture medium was replaced by 1.5 mL of culture medium containing only 0.5% of FBS with or without the compounds to be tested (NAR at 80 nM, LYC at 6 µM, and HAE at 6 µM). After 24 h of treatment, supernatants were collected, aliquoted, and kept frozen at −80 °C. Three independent series of samples were prepared. […] We thus decided to concentrate several aliquots of our supernatant samples by centrifugation of 500 µL of supernatant with Amicon Ultra 0.5 mL filters characterized by a 3 kDa cut-off (UFC500324; Millipore, Merck, Hoeilaart, Belgium) leading to a final volume of 150 µL (3.3 times concentrated). The Luminex® assay was conducted according to manufacturer’s recommendations. […]

[3] = system: subpanel of CRC cell lines; settings: NCI DTD 60 cell line screen; cited from earlier work
[4] = system: LoVo cells; assay: Invasion assay, Matrigel-coated Boyden chambers, LoVo; format: cell-based, human; settings: 6 µM, 24 h, corrected for adherent cells
[5] = system: HCT-116 cells; assay: Invasion assay, Matrigel-coated Boyden chambers, HCT-116; format: cell-based, human; settings: 1.5 µM, not dose-dependent
Protocol: Prior to seeding HCT-116 cells in the invasion chambers, the medium was removed and cells were washed twice with phosphate buffered saline and incubated in DMEM lacking FBS for 48 h before seeding at a density of 1 × 10^5 cells/well into the upper portion of Matrigel-coated invasion chambers (Corning Biocoat, Corning, NY, USA), as described previously by our group in [47, 48]. The upper portion of each chamber contained cells suspended in serum-free DMEM containing DMSO vehicle alone or increasing concentrations of the Amaryllidaceae alkaloids NAR, LYC, and HAE. […] The lower portion of each chamber contained DMEM supplemented with 10% FBS. The FBS served as a chemoattractant. A polyethylene terephthalate (PET) membrane, containing 8 μm pores and coated with Matrigel basement membrane matrix, separated the upper and lower portions of the invasion chamber. After 24 h, chambers were removed and the cells that had not invaded were removed from within the chamber using a cotton swab. The cells that had invaded through and adhered to the bottom of the PET membrane separating the chambers were fixed with methanol and stained with 0.5% crystal violet (Sigma-Aldrich, St. Louis, MO, USA). Five random images were taken of the bottom of each membrane using a Cytation 5 Cell Imaging Multi-Mode Reader (Winooski, VT, USA). The cells in each image were counted using Image J (NIH, Bethesda, MD, USA).
To correct for the inhibitory effects of the Amaryllidaceae alkaloids on cell proliferation, cells from the same biological repeat were seeded in parallel in 24-well tissue culture plates at a density of 1 × 10^5 cells/well in DMEM containing 5% FBS (the average of the FBS concentrations in the upper and lower chambers) and supplemented with vehicle or increasing concentrations of the alkaloids. These wells were not coated with Matrigel. The medium was removed, and the adherent cells were trypsinized and counted 24 h after treatment using a hemocytometer. To compare cell invasion across treatments, cell invasion was corrected for adherent cell proliferation and expressed as % vehicle control.

[6] = system: VEGF; assay: Luminex assay of VEGF in HCT-116 and LoVo cell supernatants; format: cell-based, human; settings: 6 µM; 24 h; both cell lines
Description: as §3

[7] = system: MMP-1, -2, -7, -9, -13; assay: Luminex assay of MMP secretion in HCT-116 and LoVo cell supernatants; format: cell-based, human; settings: 6 µM; 24 h; both cell lines (HCT-116, LoVo)
Description: We ordered a customized Luminex® assay to quantify 15 targets at once from Biotechne (reference LXSAHM-15; R&D Systems, Abingdon, U.K.). The 15 targets were chosen on the basis of the literature as follows: the relevant metalloproteinases MMP-1, -2, -7, -9, -13 [49] and the cytokines associated with dismal prognosis or shorter disease-free survival period: C-C motif chemokine ligand (CCL) -4, CCL-22, Flt-3 ligand, IL-1β, IL-2, IL-6, IL-8, interferon gamma (IFNγ), vascular endothelial growth factor (VEGF), and pentraxin-3 [50]. Samples were prepared as follows: HCT-116 or LoVo cells were seeded in 6-well plates and allowed to adhere and grow until they reached 70% confluency. The culture medium was replaced by 1.5 mL of culture medium containing only 0.5% of FBS with or without the compounds to be tested (NAR at 80 nM, LYC at 6 µM, and HAE at 6 µM). After 24 h of treatment, supernatants were collected, aliquoted, and kept frozen at −80 °C. Three independent series of samples were prepared. […] We thus decided to concentrate several aliquots of our supernatant samples by centrifugation of 500 µL of supernatant with Amicon Ultra 0.5 mL filters characterized by a 3 kDa cut-off (UFC500324; Millipore, Merck, Hoeilaart, Belgium) leading to a final volume of 150 µL (3.3 times concentrated). The Luminex® assay was conducted according to manufacturer’s recommendations. Data were collected on a Bioplex-200 (Bio-Rad, Temse, Belgium).

[8] = system: HCT-116^-/-; assay: MTT viability assay, HCT-116-/- (p53-null); format: cell-based, human; settings: Homo sapiens, HCT-116, 72 h of exposure, mean of six replicates of one experiment, read-out: IC50 Cancer Cell Lines (C) HCT-116-/-
Protocol: as §1, §2

[9] = system: HCT-116^+/+; assay: MTT viability assay, HCT-116+/+; format: cell-based, human; settings: Homo sapiens, HCT-116, 72 h of exposure, functional p53, mean of six replicates of one experiment, read-out: IC50 Cancer Cell Lines (C) HCT-116+/+
Protocol: as §1, §2

[10] = system: CoN; assay: MTT viability assay, CoN normal colon epithelial cell line; format: cell-based, human; settings: Homo sapiens, Epithelial cell, 72 h of exposure, mean of six replicates of one experiment, read-out: IC50 Normal Cell Line (N) CoN
Protocol: as §1, §2

[11] = system: DLD-1; assay: MTT viability assay, DLD-1; format: cell-based, human; settings: Homo sapiens, DLD-1, 72 h of exposure, TP53 mutant, mean of six replicates of one experiment, read-out: IC50 Cancer Cell Lines (C) DLD-1
Protocol: as §1, §2

[12] = system: Cancer Cell Lines (LoVo, HCT-116^+/+, HCT-116^-/-, HT-29, DLD-1); assay: MTT viability assay, mean over the five colon cancer cell lines and ratio to CoN; format: cell-based, human; settings: for IC50: Homo sapiens; for Ratio N/C: IC50 CoN / mean IC50 cancer cells
Protocol: as §1, §2

[13] = system: LoVo; assay: MTT viability assay, LoVo; format: cell-based, human; settings: Homo sapiens, LoVo, 72 h of exposure, TP53 wild type, mean of six replicates of one experiment, read-out: IC50 Cancer Cell Lines (C) LoVo
Protocol: as §1, §2

[14] = system: HT-29 p53-deficient and HCT-116 p53 wild-type models; set-up: method as in PMID 21220492; settings: cited from earlier work
[15] = after 72 h of exposure, regardless of TP53 status, read-out: IC50s against all cancer cell lines
[16] = mean over five cancer cell lines, MTT, 72 h, read-out: Mean IC50 Cancer Cells

Compound | IC50 [1] [nM] | IL-8 secretion [2] | GI50 [3] [nM] | residual invasion rate [4] [%] | invasion of HCT-116 cells [5] | VEGF levels, times decreased [6] [times] | secretion of MMP-1, -2, and -7 [7] | IC50 [8] [nM] | IC50 [9] [nM] | IC50 [10] [nM] | IC50 [11] [nM] | IC50 [12, 15] [nM] | IC50 [12, 16] [nM] | Ratio N/C [12] | IC50 [13] [nM] | IC50 [14] [nM]
O[C@H]1[C@H]2c3cc4c(cc3CN3CCC(=C[C@@H]1O)[C@H]23)OCO4 [LYC, lycorine] | 3900 | reduced | 1990 | 37.4 ± 7.8 | reduced | ≤ 10 | markedly decrease | 2600 | 1300 | 79000 | 2900 | ~3000 | 3200 | 24 | 5500 | 
CO[C@@H]1C=C[C@@]23c4cc5c(cc4CN(C[C@@H]2O)[C@H]3C1)OCO5 [HAE, haemanthamine] | 2500 |  | 15800 |  |  |  | markedly decrease | 2200 | 1900 | 85000 | 2400 | ~3000 | 2700 | 31 | 4600 | 
O=C1N[C@H]2[C@H](O)[C@H](O)[C@@H](O)[C@H](O)[C@@H]2c2cc3c(c(O)c21)OCO3 [PANC, pancratistatin] | 300 |  | 263 |  |  |  |  | 160 | 170 | 2400 | 280 |  | 300 | 8 | 590 | 100
